One data set has as its system U266 cells. In words: In vitro cytotoxicity, PI staining and flow cytometry (U266). The data set is classed as cell-based, human. Particulars: 1 hour at 37° C., PI staining, flow cytometry; compared to medium alone.
A further data set concerns H929 cells. The data set can be described thus: In vitro cytotoxicity, PI staining, flow cytometry and microscopy (H929). The class given is cell-based, human. Particulars: 1 hour at 37° C., flow cytometry, compared to medium alone. For orientation: A flow cytometer gives signals particle by particle.
For another data set, the system named is 5TGM1 cells. In words: 5TGM1 murine myeloma model in vivo (survival, serum IgG2b). Particulars: 5TGM1 i.v. in C57BL6/KaLwRij mice; i.v. once weekly for 3 weeks; 10 mg/kg Fc-Sec-MTI-101, 10 mg/kg Fc-stop or MTI-101 0.3285 mg/kg; n=5. As for the experimental part: One million 5TGM1 cells were injected intravenously (i.v.) in C57BL6/KaLwRij mice. Mice injected i.v. were treated once weekly for 3 weeks with 10 mg/kg Fc-Sec-MTI-101, 10 mg/kg Fc-stop, or an equal payload of MTI-101 (0.3285 mg/kg). […] Medium survival was 35 days for control and MTI-101 IV equal payload, 26 days for […] and 62 days for Fc-Sec-MTI-101 (n=5 animals per group), as shown in FIG. 18B. IgG2b levels were measured by ELISA 28 days following tumor inoculation.
This is an excellent immune competent MM model in which drug response is monitored in the confines of the bone marrow microenvironment. […] 5TGM1 cells (1×10^6 in 100 μL of PBS) were injected intravenously (i.v.) into the tail vein of 6-week old C57 BL/KaLwRij mice (Harlen, Netherlands). Tumor was allowed to engraft for 10 days prior to the initiation of drug treatment.
To quantify tumor burden, blood was collected by submandibular bleeding and mice were monitored weekly by measuring 5TGM1 secreted IgG2b (paraprotein) in the serum by ELISA (FIG. 18B). Hind limb paralysis and hunching were considered as additional surrogate markers for morbidity.

Data set [1] is described as follows: Maximum tolerated dose of MTI-101. Also noted: species or system C57 BL/KaLwRij mice. Particulars: mouse, in vivo, ip; i.p. 3× weekly for three weeks.
A further data set has as its system multiple myeloma (MM). Particulars: summary statement, no test described; cited from earlier work.

Numbered stars: 1 amine (or outer) side, 2 acyl side, 3 side chain; on linkers, the order of the positions; unused ones are H or OH. Bridge positions count the residues as written; N and C are the ends. Square brackets hold non-standard residues; d marks the D form. Peptide text beside a SMILES is read from it. * marks the point of attachment. dProlinol(O-CH2CO) = O=C(COC[C@H]1CCCN1[*:1])[*:2]; N(2-Aminoethyl)Gly = O=C(CN(CCN[*:3])[*:1])[*:2]; Nle = CCCC[C@H](N)C(=O)O; Ms = CS(=O)(=O)*

Protocol for H929 cells: FSC/SSC scatter densities distinguished live cells (right population) and dead cells (left population). This was confirmed by PI staining.
(§1) The cells were incubated with the conjugates and negative and positive controls for 1 hour at 37° C. followed by propidium iodide (PI) staining and flow cytometry analysis using FSC/SSC scatter densities and fluorescence to distinguish live and dead cells.
Protocol for U266 cells: as §1

As usually defined, the MTD is the largest dose that counted as tolerated. Read a low MTD as poorer tolerability. As for `CCCC[C@@H]1NC(=O)CN(S(C)(=O)=O)CCNC(=O)[C@H](CCCCN)NC(=O)[C@H](CC(C)C)NC(=O)[C@H](CCCCN)NC(=O)[C@H](CC(C)C)NC(=O)[C@H](CCCCN)NC(=O)COC[C@H]2CCCN2C(=O)[C@H](Cc2c[nH]c3ccccc23)NC(=O)[C@H](C)NC(=O)[C@H](C(C)C)NC(=O)[C@H](C(C)C)NC1=O` [MTI-101] (Ms-[N(2-Aminoethyl)Gly][Nle]VVAW[dProlinol(O-CH2CO)]KLKLK; lactam 1-C), the “cytotoxicity toward U266 cells” value in the data set on U266 cells is listed as “clearly killed”. Also, in the data set with H929 cells, the “cytotoxicity toward H929 cells” value was “clearly killed”. In the data set on 5TGM1 cells, the Medium survival was 35 days. The same compound returned an MTD in data set [1] of 10 mg/kg. The IC50 potency result in the data set on multiple myeloma (MM) is listed as “near nM”.

The values are drawn from US10011635B2, “Cyclic peptide conjugates and methods of use” (priority 2013, dated 2018).
